Laboratory results taken from patent publication US20040063681A1, “Methods for using gold (III) complexes as anti-tumor and anti-HIV agents” (priority 2002, published 2004).

Tests used:
[1] = system: human lung fibroblast cells (CCD-19Lu); settings: MTT
Experimental: Acute cytotoxicities of the gold(III) complexes to normal cells were evaluated using human lung fibroblast cells (CCD-19Lu) as model cell line. The percentages of cell survival at various doses of the gold complexes were determined by the MTT assay, and the toxicities profiles are shown in FIG. 15.

HeLa cells = test: Flow cytometry annexin V/propidium iodide apoptosis assay; type: cell-based, human
Excerpt: Flow cytometry: The gold(III) porphyrin-induced apoptosis of the HeLa cell line has been further examined by flow cytometry. During the early phase of apoptosis, cells lose the asymmetry of their membrane phospholipids, although the integrity of the cell membrane is maintained. A negatively charged phospholipid, named phosphatidylserine (PS), which is located in the inner part of the plasma membrane, becomes exposed to the cell surface. A phospholipid-binding protein, annexin V (green emissive upon binding), with high affinity binds preferentially to PS. Apoptotic cells therefore can be stained by annexin V before the dying cell changes its morphology and hydrolyzes its DNA. On the other hand, both DNA and the PS would be exposed for necrotic cells. In this case, propidium iodide (PI, red emissive upon binding), can be used to stain selectively the naked DNA. Therefore, both apoptotic and necrotic cells can be discriminated after adding these two staining reagents. For apoptotic cells, only annexin V would stain; for necrotic cells, both annexin V and PI would stain.
For comparison, a control cell culture experiment was performed in the absence of Complex 1a and straurosporine. […] Throughout the flow cytometric experiment, <1% of necrotic cells were observed.

Q: `C1=Cc2nc1c(-c1ccccc1)c1ccc([n-]1)c(-c1ccccc1)c1nc(c(-c3ccccc3)c3ccc([n-]3)c2-c2ccccc2)C=C1.[Au+3].[Cl-]` [Complex 1a] was tested. Which cell death ([1]; CCD-19Lu, 2 μM) did it give?
A: 90%

Q: And the IC50 ([1]; read-out: IC50 CCD-19Lu, mean ± SE of at least three determinations)?
A: 0.91 ± 0.21 µM

Q: And the “cells that underwent apoptosis” value (HeLa cells; 6 h of incubation)?
A: 24%

Q: What about the “cells died via apoptosis” value (HeLa cells; 15 h of incubation) of the same molecule?
A: 57%

Q: And the “annexin V emission” value (HeLa cells; after treatment (Complex 1a 6 and 15 h; straurosporine 15 h))?
A: the magnitude of the annexin V emission was enhanced

Q: And the necrotic cells (HeLa cells; throughout the flow cytometric experiment)?
A: < 1%
